Measured values: patent EP1698638A1, “Lipopeptides having pharmaceutical activity” (Technische Universität Berlin, priority 2005, dated 2006)

Legend:
Aspergillus fumigatus = assay: disk diffusion assay on malt agar plates; type: cell-based; details: 10 µg in 30 µL 50% MeOH per disk
Candida glabrata = assay: disk diffusion assay on malt agar plates; type: cell-based; details: 10 µg in 30 µL 50% MeOH per disk
Ustilago maydis = assay: disk diffusion assay on malt agar plates; type: cell-based; details: 10 µg in 30 µL 50% MeOH per disk
Fusarium sambucium = assay: disk diffusion assay on malt agar plates; type: cell-based; details: 10 µg in 30 µL 50% MeOH per disk
Candida albicans = assay: disk diffusion assay on malt agar plates; type: cell-based; details: 10 µg in 30 µL 50% MeOH per disk
ATCC 6258 (QC) = assay: microdilution assay (NCCLS), inhibitory concentration (IC); type: cell-based, Candida krusei
Method: (§1) More specifically, a determination of inhibitory concentration (IC) of hassallidin A and hassallidin B for various fungi, Candida species and Candida strains were performed with different media (RPMI-1640 or SAB or AM3) in a microdilution assay by following the guidelines in NCCLS documents M^38-P^25 and M27-A2^26 carried out as follows Each substance was dissolved with 100% dimethyl sulfoxide (Serva, Heidelberg, Germany) to give a stock solution of 3.2 mg/ml followed by nine log2 dilution steps with the solvent. This served as a 100-fold concentrated dilution series ranging from 1.6 mg/ml to 0.003 mg/ml of the test substance. The final concentration of the test substance was 16 µg/ml to 0.031 µg/ml.
(§2) Therefore the 100-fold concentrated dilution series (with 100% DMSO) was diluted to the final concentration by two dilution steps: • (1) Each concentration of the 100-fold concentrated substance was diluted with test medium for 1:50 (for ex.: adding of 13 µl of the test substance to 637 µl test medium). • (2) 100 µl of each 1:50 diluted concentration was filled in a row of wells of a microtitre plate. One well was without the substance but with the 1:50 diluted solvent serving as growth control.
(§3) A further 1:2 dilution of the antifungal was made by the inoculation of each well with 100 µl of the test organism, which was suspended in the test medium. The remaining well of the row was used for sterility control of the medium. The inoculum was strictly prepared according the NCCLS^25 guidelines, resulting in […] for Candida-species and Cryptococcus neoformans. For hyphomycetes CFU's were tenfold higher (see NCCLS). ^26 The growth of the hyphomycetes respectively the inhibition was measured by visual reading with the help of a reading mirror; scoring was done according to NCCLS :^26 score 0 corresponds to a optical clear well or an IC95 or higher, score 1 corresponds to an inhibition of 80 percent (IC80) and the score 2 of the NCCLS definition corresponds to the IC50 values in the tables. The growth of the yeasts was measured spectrophotometrically by a microplate reader (MR 5000, Dynatech laboratories) at 630 nm displaying the optical density (OD). The percent inhibition IC50, IC80 or IC95 (corresponding the scores of 2, 1 and 0) was calculated by the following formula: (100−[(ODof the well−ODof the medium)] × 100)/((ODof the growth control−ODof the medium).) [formula] Table 3. Test series for determining IC values of hassallidin A and B in different media using Candida albicans and Candida krusei. The IC values were measured after 24 h and 48 h at 30 °C.

Penicillium sp. = assay: disk diffusion assay on malt agar plates; type: cell-based; details: 10 µg in 30 µL 50% MeOH per disk
Candida albicans SC 5314 = assay: microdilution assay (NCCLS), inhibitory concentration (IC); type: cell-based
Method: as §1, §2, §3

[1] = tested on: L 929 (murine aneuploid fibrosarcoma) cells; assay: cytotoxicity assay, IC-Tox50 Kit, resazurin (2nd test); type: cell-based; details: down to a concentration of 1.0 µg/mL; decrease of resazurin at 595 nm, 24 h
Method: 2nd test Cytotoxicity assays were further performed using the IC-Tox50 Kit from CCS (Cell Culture Service, Hamburg) according to the manufacturers recommendations in 96-well microtitre plates. L 929 (murine aneuploid fibrosarcoma) cells were used and the activity was followed by recording the decrease of the blue pigment resazurin at 595 nm. Down to a concentration of 1.0 µg/mL a hundred percent inhibition of cell activity was determined for hassallidin A and hassallidin B. The cytotoxity assays using deposited L 929 cells were prepared as follows: • Each well contained 140 µl RPMI-1640 medium, 100 µl resazurin solution and 10 µl test solution of hassallidin A or hassallidin B at different concentrations. To obtain 10 µl test solution, 1 µl / 2 µl / 3 µl or 4µl of a 50% methanolic stock solution (25 µg/ 100 µl) were mixed with 9 µl / 8 µl / 7 µl or 6 µl 50% MeOH. For unhindered cell activity, 10 µl 50% MeOH solution was used as test solution. Solutions of 1µg Na2SeO3 / 10 µl (50% MeOH) and 2 µg Na2SeO3 /10 µl (50% MeOH) were used as positive control. • The absorption difference (t0h-t24h) of resazurin metabolised by L 929 cells is graphically represented in figure 6.

Aspergillus niger = assay: disk diffusion assay on malt agar plates; type: cell-based; details: 10 µg in 30 µL 50% MeOH per disk
[2] = Table 3 series, RPMI, 30 °C, 24h
[3] = Table 3 series, RPMI, 30 °C, 48h
[4] = Table 3 series, AM3, 30 °C, 24h
[5] = Table 3 series, AM3, 30 °C, 48h
[6] = Table 3 series, SAB, 30 °C, 24h
[7] = Table 3 series, SAB, 30 °C, 48h
[8] = Table 4 series, RPMI-1640 medium, 30°C/24h
[9] = Table 4 series, RPMI-1640 medium, 30°C/48h
[10] = Table 4 series, RPMI-1640 medium, 35°C/24h
[11] = Table 4 series, RPMI-1640 medium, 35°C/48h

hassallidin B
8 µg/mL: IC50 (Candida albicans SC 5314; [5]) | IC80 (Candida albicans SC 5314; [5]) | IC95 (Candida albicans SC 5314; [5]) | IC50 (Candida albicans SC 5314; [6]) | IC80 (Candida albicans SC 5314; [6]) | IC95 (Candida albicans SC 5314; [6]) | IC50 (Candida albicans SC 5314; [7]) | IC80 (Candida albicans SC 5314; [7]) | IC95 (Candida albicans SC 5314; [7])
precise antifungal activity: antifungal activity in disk diffusion assay (Aspergillus fumigatus) | antifungal activity in disk diffusion assay (Candida glabrata) | antifungal activity in disk diffusion assay (Ustilago maydis) | antifungal activity in disk diffusion assay (Fusarium sambucium) | antifungal activity in disk diffusion assay (Candida albicans) | antifungal activity in disk diffusion assay (Penicillium sp.) | antifungal activity in disk diffusion assay (Aspergillus niger)
a hundred: inhibition of cell activity [1]
4 µg/mL: IC50 (Candida albicans SC 5314; [4]) | IC80 (Candida albicans SC 5314; [4]) | IC95 (Candida albicans SC 5314; [4])
16 µg/mL: IC50 (ATCC 6258 (QC); [2]) | IC80 (ATCC 6258 (QC); [2]) | IC95 (ATCC 6258 (QC); [2]) | IC50 (ATCC 6258 (QC); [3]) | IC80 (ATCC 6258 (QC); [3]) | IC95 (ATCC 6258 (QC); [3]) | IC50 (Candida albicans SC 5314; [2]) | IC80 (Candida albicans SC 5314; [2]) | IC95 (Candida albicans SC 5314; [2]) | IC50 (Candida albicans SC 5314; [3]) | IC80 (Candida albicans SC 5314; [3]) | IC95 (Candida albicans SC 5314; [3])

hassallidin A
4 µg/mL: IC50 (Candida albicans SC 5314; [4]) | IC80 (Candida albicans SC 5314; [4]) | IC95 (Candida albicans SC 5314; [4]) | IC50 (Candida albicans SC 5314; [6]) | IC80 (Candida albicans SC 5314; [6]) | IC95 (Candida albicans SC 5314; [6])
16 µg/mL: IC50 (ATCC 6258 (QC); [2]) | IC80 (ATCC 6258 (QC); [2]) | IC95 (ATCC 6258 (QC); [2]) | IC50 (ATCC 6258 (QC); [3]) | IC80 (ATCC 6258 (QC); [3]) | IC95 (ATCC 6258 (QC); [3]) | IC50 (ATCC 6258 (QC); [11]) | IC95 (ATCC 6258 (QC); [11]) | IC50 (Candida albicans SC 5314; [2]) | IC80 (Candida albicans SC 5314; [2]) | IC95 (Candida albicans SC 5314; [2]) | IC50 (Candida albicans SC 5314; [3]) | IC80 (Candida albicans SC 5314; [3]) | IC95 (Candida albicans SC 5314; [3])
8 µg/mL: IC50 (ATCC 6258 (QC); [8]) | IC80 (ATCC 6258 (QC); [8]) | IC95 (ATCC 6258 (QC); [8]) | IC50 (ATCC 6258 (QC); [9]) | IC80 (ATCC 6258 (QC); [9]) | IC95 (ATCC 6258 (QC); [9]) | IC50 (ATCC 6258 (QC); [10]) | IC50 (Candida albicans SC 5314; [5]) | IC80 (Candida albicans SC 5314; [5]) | IC95 (Candida albicans SC 5314; [5]) | IC50 (Candida albicans SC 5314; [7]) | IC80 (Candida albicans SC 5314; [7]) | IC95 (Candida albicans SC 5314; [7]) | IC50 (Candida albicans SC 5314; [10]) | IC80 (Candida albicans SC 5314; [10]) | IC95 (Candida albicans SC 5314; [10]) | IC50 (Candida albicans SC 5314; [11]) | IC80 (Candida albicans SC 5314; [11]) | IC95 (Candida albicans SC 5314; [11])
a hundred: inhibition of cell activity [1]
precise antifungal activity: antifungal activity in disk diffusion assay (Aspergillus fumigatus) | antifungal activity in disk diffusion assay (Candida glabrata) | antifungal activity in disk diffusion assay (Ustilago maydis) | antifungal activity in disk diffusion assay (Fusarium sambucium) | antifungal activity in disk diffusion assay (Candida albicans) | antifungal activity in disk diffusion assay (Penicillium sp.) | antifungal activity in disk diffusion assay (Aspergillus niger)
